Like-named read-outs stand apart in the source and are kept apart here.
Tests used:
Test in all cases: Glasshouse assay for herbicidal activity, pre-/post-emergence (percentage phytotoxicity)
Format in all cases: in vivo
[1] = system: Avena fatua (AVEFA); conditions: Avena fatua, Rate 250 g/ha, 100%=total damage, 0%=no damage
Procedure: (§1) Seeds of a variety of monocotyledonous and dicotyledonous test plants are sown in standard soil in pots. The plants are cultivated for one day (for pre-emergence) or for about 12 days (for post-emergence) under controlled conditions in a glasshouse (warm climate species at 24/18° C., cool climate species at 20/16° C., both at day/night; 16 hours light; 65% humidity). The test plants are then grown on, in a glasshouse (greenhouse) under controlled conditions (warm climate species at 24/18° C., cool climate species at 20/16° C., both at day/night; 16 hours light; 65% humidity) and are watered twice daily. 15 days after application of the test herbicide (15DAA) (for post-emergence), and 20 days after application of the test herbicide (20DAA) (for pre-emergence), the test plants are evaluated visually, and an assessed percentage phytotoxicity score is given for each herbicidal application on each plant species (with 100%=total damage to plant; 0%=no damage to plant). The plant species tested are as follows: Alopecurus myosuroides (ALOMY), Avena fatua (AVEFA), Lolium perenne (LOLPE), Echinochloa crus-galli (ECHCG).

[2] = system: Alopecurus myosuroides (ALOMY); conditions: Alopecurus myosuroides, Rate 250 g/ha, 100%=total damage, 0%=no damage
Procedure: as §1

[3] = system: Echinochloa crus-galli (ECHCG); conditions: Echinochloa crus-galli, Rate 250 g/ha, 100%=total damage, 0%=no damage
Procedure: as §1

[4] = system: Lolium perenne (LOLPE); conditions: Lolium perenne, Rate 250 g/ha, 100%=total damage, 0%=no damage
Procedure: as §1

[5] = post-emergence, 360 h, post-emergence, visual assessment 15 DAA, read-out: Post-emergence herbicidal activity (percentage phytotoxicity), AVEFA POST
[6] = pre-emergence, 480 h, pre-emergence, visual assessment 20 DAA, read-out: Pre-emergence herbicidal activity (percentage phytotoxicity), AVEFA PRE
[7] = 360 h, post-emergence, visual assessment 15 DAA, read-out: Post-emergence herbicidal activity (percentage phytotoxicity), ALOMY POST
[8] = 480 h, pre-emergence, visual assessment 20 DAA, read-out: Pre-emergence herbicidal activity (percentage phytotoxicity), ALOMY PRE
[9] = post-emergence, 360 h, post-emergence, visual assessment 15 DAA, read-out: Post-emergence herbicidal activity (percentage phytotoxicity), ECHCG POST
[10] = pre-emergence, 480 h, pre-emergence, visual assessment 20 DAA, read-out: Pre-emergence herbicidal activity (percentage phytotoxicity), ECHCG PRE
[11] = post-emergence, 360 h, post-emergence, visual assessment 15 DAA, read-out: Post-emergence herbicidal activity (percentage phytotoxicity), LOLPE POST
[12] = pre-emergence, 480 h, pre-emergence, visual assessment 20 DAA, read-out: Pre-emergence herbicidal activity (percentage phytotoxicity), LOLPE PRE

Row | Structure (SMILES) | pest or weed control at 250 g/ha [1, 5] | pest or weed control at 250 g/ha [1, 6] | pest or weed control at 250 g/ha [2, 7] | pest or weed control at 250 g/ha [2, 8] | pest or weed control at 250 g/ha [3, 9] | pest or weed control at 250 g/ha [3, 10] | pest or weed control at 250 g/ha [4, 11] | pest or weed control at 250 g/ha [4, 12]
1 | Cc1cc(-c2ccc(F)cc2)cc(C)c1C1C(=O)CC(CCNC(=O)C2=NOC(C)(C)C2)C1=O (centres unmarked) [Compound A109] | 100% | 90% | 100% | 90% | 100% | 90% | 100% | 90%
2 | C#Cc1cc(C)cc(C)c1C1C(=O)CC(CCNC(=O)C2=NOC(C)(C)C2)C1=O (centres unmarked) [Compound A123, N-[2-[3-(2-ethynyl-4,6-dimethyl-phenyl)-2,4-dioxo-cyclopentyl]ethyl]-5,5-dimethyl-4H-isoxazole-3-carboxamide] | 100% | 50% | 100% | 70% | 100% | 20% | 80% | 90%
3 | Cc1cc(C)c(C2C(=O)CC(CCNc3ncc(C(F)(F)F)cc3F)C2=O)c(C)c1 (centres unmarked) [Compound A97] | 90% | 90% | 90% | 80% | 100% | 90% | 90% | 100%
4 | Cc1cc(-n2cc(Cl)cn2)cc(C)c1C1C(=O)CC(CCNc2ccc([N+](=O)[O-])cn2)C1=O (centres unmarked) [Compound A99] | 90% | 0% | 70% | 0% | 100% | 0% | 60% | 0%
5 | CC#Cc1cc(C)c(C2C(=O)CC(CCNC(=O)C3=NOC(C)(C)C3)C2=O)c(C)c1 (centres unmarked) [Compound A108] | 100% | 90% | 100% | 100% | 100% | 100% | 100% | 100%
6 | Cc1cc(C)c(C2C(=O)CC(CCNc3ccc([N+](=O)[O-])cn3)C2=O)c(C)c1 (centres unmarked) [Compound A96] | 100% | 90% | 90% | 80% | 100% | 100% | 100% | 100%
7 | Cc1cc(-c2ncc(C#N)cn2)cc(C)c1C1C(=O)CC(CCNC(=O)C2=NOC(C)(C)C2)C1=O (centres unmarked) [Compound A114] | 100% | 80% | 90% | 90% | 100% | 70% | 100% | 70%
8 | Cc1cc(C)c(C2C(=O)C[C@H](CCNC(=O)C3=NOC(C)(C)C3)C2=O)c(C)c1 (some centres unmarked) [Compound A103] | 80% | 50% | 80% | 80% | 70% | 60% | 70% | 80%
9 | Cc1cc(C)c(C2C(=O)CC(CCNc3ncc(Br)cn3)C2=O)c(C)c1 (centres unmarked) [Compound A126, 4-[2-[(5-bromopyrimidin-2-yl)amino]ethyl]-2-(2,4,6-trimethylphenyl)cyclopentane-1,3-dione] | 90% | 100% | 90% | 80% | 90% | 80% | 90% | 90%
10 | Cc1cc(-c2ncc(Cl)cc2F)cc(C)c1C1C(=O)CC(CCNC(=O)C2=NOC(C)(C)C2)C1=O (centres unmarked) [Compound A117] | 100% | 80% | 100% | 90% | 100% | 80% | 100% | 80%
11 | Cc1cc(-c2ncc(F)cn2)cc(C)c1C1C(=O)CC(CCNC(=O)C2=NOC(C)(C)C2)C1=O (centres unmarked) [Compound A110] | 100% | 90% | 100% | 100% | 100% | 90% | 90% | 90%
12 | Cc1cc(C)c(C2C(=O)CC(CCNc3ccc(C#N)cc3C(F)(F)F)C2=O)c(C)c1 (centres unmarked) [Compound A106] | 90% | 40% | 90% | 70% | 90% | 90% | 90% | 60%
13 | Cc1cc(-c2ccc(C#N)cn2)cc(C)c1C1C(=O)CC(CCNC(=O)C2=NOC(C)(C)C2)C1=O (centres unmarked) [Compound A119] | 100% | 80% | 90% | 90% | 100% | 90% | 100% | 80%
14 | CNC(=O)NCCC1CC(=O)C(c2c(C)cc(C)cc2C)C1=O (centres unmarked) [Compound A94, 1-[2-[2,4-dioxo-3-(2,4,6-trimethylphenyl)cyclopentyl]ethyl]-3-methyl-urea] | 90% | 60% | 60% | 80% | 90% | 70% | 80% | 100%
15 | CC#Cc1cc(C)c(C2C(=O)CC(CCNc3ccc(C(F)(F)F)cn3)C2=O)c(C)c1 (centres unmarked) [Compound A113] | 100% | 70% | 100% | 90% | 100% | 90% | 100% | 90%
16 | Cc1cc(C)c(C2C(=O)CC(CCNc3ncc(Cl)cn3)C2=O)c(C)c1 (centres unmarked) [Compound A125] | 90% | 80% | 90% | 90% | 100% | 90% | 100% | 90%
17 | Cc1cc(-c2ncc(Cl)cn2)cc(C)c1C1C(=O)CC(CCNC(=O)C2=NOC(C)(C)C2)C1=O (centres unmarked) [Compound A118] | 100% | 90% | 100% | 100% | 100% | 90% | 100% | 90%
18 | Cc1cc(C)c(C2C(=O)CC(CCN(C)C(=O)Nc3ccccn3)C2=O)c(C)c1 (centres unmarked) [Compound A101, 1-[2-[2,4-dioxo-3-(2,4,6-trimethylphenyl)cyclopentyl]ethyl]-1-methyl-3-(2-pyridyl)urea] | 70% | 0% | 70% | 40% | 70% | 10% | 40% | 30%
19 | Cc1cc(-c2ncc(F)cc2F)cc(C)c1C1C(=O)CC(CCNC(=O)C2=NOC(C)(C)C2)C1=O (centres unmarked) [Compound A111] | 100% | 100% | 100% | 100% | 100% | 90% | 40% | 90%

Reference: patent publication US10301295B2, “Herbicidal compounds” (Syngenta Participations AG, priority 2014, dated 2019)
